Activity calls are given as the source filed them. The rule behind the calls is not given here.
Assays:
[1] = target: T1, Lactoylglutathione lyase (Homo sapiens, UniProt Q04760); assay: Inhibition of recombinant human His-tagged glyoxalase 1 expressed in Escherichia coli BL21 assessed as formation of S-D-lactoylglutathione after 5 mins by spectrophotometric method
Target sequence in this assay (Q04760 whole entry): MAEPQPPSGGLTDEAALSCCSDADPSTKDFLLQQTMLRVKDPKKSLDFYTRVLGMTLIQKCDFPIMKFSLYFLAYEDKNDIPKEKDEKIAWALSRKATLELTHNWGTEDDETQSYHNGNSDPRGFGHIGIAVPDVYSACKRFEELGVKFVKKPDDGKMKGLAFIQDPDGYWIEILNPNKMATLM

[2] = target: T1, Lactoylglutathione lyase; assay: Inhibition of human recombinant His-tagged glyoxalase 1 expressed in Escherichia coli BL21 assessed as formation of S-D-lactoylglutathione at 100 uM after 5 mins by spectrophotometric method
Target sequence in this assay (Q04760 2-184 limits assumed): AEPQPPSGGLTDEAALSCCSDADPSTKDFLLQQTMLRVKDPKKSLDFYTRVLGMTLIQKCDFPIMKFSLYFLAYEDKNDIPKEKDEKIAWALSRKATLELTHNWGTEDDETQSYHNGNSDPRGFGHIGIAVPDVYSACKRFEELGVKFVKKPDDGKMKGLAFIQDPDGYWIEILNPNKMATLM

[3] = system: HL-60; assay: induction of apoptosis in human HL60 cells at 300 uM; type: functional, cell-based
[4] = system: HL-60; assay: Antiproliferative activity against human HL60 cells at 300 uM; type: functional, cell-based

SMILES: COc1ccc(C(=O)Nc2ccccc2C(=O)O)cc1
- IC50 [1]: 93.2 µM
- inhibition [2]: Active

SMILES: COc1ccc(/C=C(/CC(=O)O)c2nc3ccccc3s2)cc1
- IC50 [1]: 2 µM
- inhibition [2]: Active
- Activity [3]: Active
- Activity [4]: Active

SMILES: COc1ccc(C(=O)Nc2sc3c(c2C(=O)O)CCCC3)cc1
- IC50 [1]: 54.6 µM
- inhibition [2]: Active

Reference: ChEMBL document CHEMBL1909515, “Discovery of a new type inhibitor of human glyoxalase I by myricetin-based 4-point pharmacophore” (Bioorg Med Chem Lett, 2011)
